These results are taken from patent US8221991B2, “Orphan nuclear receptor” (priority 1998, dated 2012).

Each structure is given as a SMILES string. Entries after “also recorded” stand apart in the source; their conditions may differ.

Data set [1] deals with T1, hPXR (Homo sapiens, UniProt O75469).
T1 sequence (O75469 1-434): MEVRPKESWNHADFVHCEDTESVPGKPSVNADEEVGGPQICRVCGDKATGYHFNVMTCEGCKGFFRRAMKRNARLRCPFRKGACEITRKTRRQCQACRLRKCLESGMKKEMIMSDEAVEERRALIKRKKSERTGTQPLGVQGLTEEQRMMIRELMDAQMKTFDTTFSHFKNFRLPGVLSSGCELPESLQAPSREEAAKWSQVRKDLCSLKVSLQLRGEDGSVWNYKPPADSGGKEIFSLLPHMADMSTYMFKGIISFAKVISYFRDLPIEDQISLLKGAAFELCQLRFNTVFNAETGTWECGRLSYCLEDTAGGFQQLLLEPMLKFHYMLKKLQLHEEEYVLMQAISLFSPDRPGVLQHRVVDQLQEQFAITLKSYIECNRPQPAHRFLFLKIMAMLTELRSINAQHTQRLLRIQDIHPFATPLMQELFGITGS
Put plainly: Cotransfection assay, pSG5-hPXR ATG with (IR6)3-tk-CAT reporter in CV-1 cells. As to conditions: for activation of hPXR (CAT activity): 1 μM lovastatin, 100 μM phenobarbital, 10 μM of the other compounds. The protocol: (§1) Cells were treated with 1 μM mevastatin or lovastatin, 100 μM phenobarbital, or 10 μM of the other compounds. Cell extracts were subsequently assayed for CAT activity. […] (FIG. 4C) CARLA was performed with bacterially-expressed GST-hPXR or GST-mPXR1 and [^35S]SRC1.14 synthesized in vitro. […] [^35S]SRC1.14 complexed with GST-hPXR (top panel) or GST-mPXR1 (bottom panel) was precipitated with glutathione-sepharose beads.
(§2) CV-1 cells were plated in 24-well plates in DME medium supplemented with 10% charcoal-stripped fetal calf serum at a density of 1.2×10^5 cells per well. […] Cells were transfected overnight by lipofection using Lipofectamine (Life Technologies, Inc.), according to the manufacturer's instructions. The medium was changed to DME medium supplemented with 10% delipidated calf serum (Sigma) and cells were incubated for an additional 24 hours.
To determine, whether hPXR could regulate transcription through the IR6 motif, a reporter plasmid was generated containing three copies of the CYP3A4 IR6 response element upstream of the tk promoter and CAT gene.
It was next determined whether hPXR might mediate the effects of some or all of these compounds on CYP3A4 expression. CV-1 cells were cotransfected with the pSG5-hPXR ATG expression plasmid and the (IR6)3-tk-CAT reporter plasmid, and the cells were treated with micromolar concentrations of a number of compounds that are known to induce CYP3A gene expression in humans and/or rodents.

The target in data set [2] is T1, hPXR. As to conditions: CV-1 cells; 10 μM. The protocol:
FIGS. 1A-1D. […] Cell extracts were subsequently assayed for CAT activity.
as §2

The test system of a further data set is CYP3A1 levels. As to conditions: cited from earlier work.
The target of a further data set is mPXR1 (Mus musculus, UniProt O54915). As to conditions: CV-1 cells, (IR6)3-tk-CAT reporter; 10 μM.
Sequence of mPXR1 (O54915 whole entry): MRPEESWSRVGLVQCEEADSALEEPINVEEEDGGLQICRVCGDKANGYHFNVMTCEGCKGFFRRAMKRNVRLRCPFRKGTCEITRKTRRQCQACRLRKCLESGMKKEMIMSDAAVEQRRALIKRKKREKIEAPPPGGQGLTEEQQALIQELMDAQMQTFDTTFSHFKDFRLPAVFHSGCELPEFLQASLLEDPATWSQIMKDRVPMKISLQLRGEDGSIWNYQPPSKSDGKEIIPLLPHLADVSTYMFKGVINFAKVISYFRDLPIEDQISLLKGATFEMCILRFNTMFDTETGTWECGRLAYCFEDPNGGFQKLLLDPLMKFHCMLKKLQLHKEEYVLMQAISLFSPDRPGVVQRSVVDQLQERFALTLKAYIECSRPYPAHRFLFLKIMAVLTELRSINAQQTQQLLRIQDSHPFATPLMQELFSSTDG
Data set [3] concerns the target T2, GST-mPXR1 (Mus musculus, UniProt O54915).
T2 construct: The LBDs of hPXR and mPXR1 were expressed in E. coli as fusion proteins with glutathione-S-transferase (GST); made in house; host or cells: E. coli
As to conditions: Kliewer et al, Cell 92:73-82 (1998); cited from earlier work.

A further data set relates to CYP3A4 gene expression. As to conditions: cited from earlier work.
In another data set the target is T3, Biotin-His6-PXR/RXRα (Homo sapiens, UniProt O75469).
T3 sequence (O75469 with tags, fused parts or gaps): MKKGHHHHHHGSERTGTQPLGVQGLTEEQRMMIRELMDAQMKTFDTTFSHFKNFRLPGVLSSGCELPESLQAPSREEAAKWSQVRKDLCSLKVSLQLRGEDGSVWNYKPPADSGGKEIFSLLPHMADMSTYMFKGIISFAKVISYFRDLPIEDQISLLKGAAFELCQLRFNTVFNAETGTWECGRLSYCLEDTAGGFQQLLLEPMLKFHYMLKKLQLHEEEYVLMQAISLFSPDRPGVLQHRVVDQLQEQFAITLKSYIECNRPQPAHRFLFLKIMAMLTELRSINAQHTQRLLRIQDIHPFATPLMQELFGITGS
T3 sequence (P19793 with tags, fused parts or gaps partner limits assumed): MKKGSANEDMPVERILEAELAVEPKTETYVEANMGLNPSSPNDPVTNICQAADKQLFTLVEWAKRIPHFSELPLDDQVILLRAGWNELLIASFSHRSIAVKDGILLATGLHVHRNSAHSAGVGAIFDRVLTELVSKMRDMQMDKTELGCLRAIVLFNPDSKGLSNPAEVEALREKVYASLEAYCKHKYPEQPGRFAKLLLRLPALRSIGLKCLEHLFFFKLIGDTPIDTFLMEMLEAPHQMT
Kind of data set: biochemical.

Data set [4] concerns the target T2, GST-mPXR1. Kind of data set: Coactivator-receptor ligand assay (CARLA), GST-mPXR1 with [35S]SRC1.14. It is filed as binding. As to conditions: 10 μM. The protocol:
as §1
GST-hPXR fusion protein was expressed in BL21(DE3)plysS cells and bacterial extracts prepared by one cycle of freeze-thaw of the cells in Protein Lysis. Buffer containing 10 mM Tris, pH 8.0, 50 mM KCl, 10 mM DTT, and 1% NP-40 followed by centrifugation at 40,000×g for 30 minutes. Glycerol was added to the resulting supernatant to a final concentration of 10%. Lysates were stored at −80° C. [^35S]SRC1.14 was generated using the TNT rabbit reticulocyte system (Promega) in the presence of Pro-Mix (Amersham). Coprecipitation reactions included 25 μl of lysate containing GST-hPXR fusion protein, 25 μl Incubation Buffer (50 mM KCl, 40 mM HEPES pH 7.5, 5 mM β-mercaptoethanol, 1% Tween-20, 1% non-fat dry milk), 5 μl […], and vehicle (1% DMSO) or compounds as indicated. […]

T2 sequence (O54915 143-430 limits assumed): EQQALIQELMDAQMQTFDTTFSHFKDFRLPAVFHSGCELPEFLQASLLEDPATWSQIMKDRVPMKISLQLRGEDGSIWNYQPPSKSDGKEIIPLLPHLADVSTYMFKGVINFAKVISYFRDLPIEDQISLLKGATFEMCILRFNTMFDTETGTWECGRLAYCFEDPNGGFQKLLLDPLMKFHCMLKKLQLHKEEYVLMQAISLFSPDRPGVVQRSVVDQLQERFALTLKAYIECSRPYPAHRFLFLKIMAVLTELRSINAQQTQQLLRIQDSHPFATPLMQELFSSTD
T2 sequence (Q15788 whole entry partner, the tested form may be a part): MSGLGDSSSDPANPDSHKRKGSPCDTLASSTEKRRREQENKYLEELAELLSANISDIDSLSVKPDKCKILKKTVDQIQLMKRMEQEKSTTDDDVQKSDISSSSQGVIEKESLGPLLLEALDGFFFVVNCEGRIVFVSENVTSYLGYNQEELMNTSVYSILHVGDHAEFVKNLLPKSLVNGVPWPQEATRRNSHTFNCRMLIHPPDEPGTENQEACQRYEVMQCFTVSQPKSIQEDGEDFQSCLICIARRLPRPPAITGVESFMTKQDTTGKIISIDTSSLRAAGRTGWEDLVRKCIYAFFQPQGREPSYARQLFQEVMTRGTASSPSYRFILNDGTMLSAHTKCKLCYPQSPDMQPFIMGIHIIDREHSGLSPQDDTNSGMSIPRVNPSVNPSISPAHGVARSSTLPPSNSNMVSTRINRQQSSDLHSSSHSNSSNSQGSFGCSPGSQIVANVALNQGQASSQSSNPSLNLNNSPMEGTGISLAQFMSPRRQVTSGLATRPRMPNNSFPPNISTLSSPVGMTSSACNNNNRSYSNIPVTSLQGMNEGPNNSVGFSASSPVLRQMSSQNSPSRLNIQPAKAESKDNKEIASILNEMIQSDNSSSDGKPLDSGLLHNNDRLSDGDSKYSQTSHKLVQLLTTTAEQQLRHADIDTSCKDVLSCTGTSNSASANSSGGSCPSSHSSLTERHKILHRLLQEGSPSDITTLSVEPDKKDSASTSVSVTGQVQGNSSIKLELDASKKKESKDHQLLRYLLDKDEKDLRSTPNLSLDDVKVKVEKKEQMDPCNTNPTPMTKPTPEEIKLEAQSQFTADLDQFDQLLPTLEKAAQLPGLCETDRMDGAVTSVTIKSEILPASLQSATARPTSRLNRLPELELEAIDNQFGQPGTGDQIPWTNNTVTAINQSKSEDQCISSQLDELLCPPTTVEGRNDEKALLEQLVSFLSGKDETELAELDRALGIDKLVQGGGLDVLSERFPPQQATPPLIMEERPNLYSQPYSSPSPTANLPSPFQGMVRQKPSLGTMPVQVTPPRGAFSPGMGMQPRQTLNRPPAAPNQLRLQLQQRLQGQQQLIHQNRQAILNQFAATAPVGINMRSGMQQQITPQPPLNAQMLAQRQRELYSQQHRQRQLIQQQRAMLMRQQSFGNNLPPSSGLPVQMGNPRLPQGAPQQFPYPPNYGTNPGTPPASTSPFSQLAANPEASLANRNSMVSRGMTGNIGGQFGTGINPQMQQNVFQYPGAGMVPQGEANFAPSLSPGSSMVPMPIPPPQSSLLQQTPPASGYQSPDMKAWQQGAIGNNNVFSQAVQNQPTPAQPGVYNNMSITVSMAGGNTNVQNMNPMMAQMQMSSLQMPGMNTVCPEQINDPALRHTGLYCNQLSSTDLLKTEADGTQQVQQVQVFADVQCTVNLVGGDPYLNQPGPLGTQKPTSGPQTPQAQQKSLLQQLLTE
Procedure for Biotin-His6-PXR/RXRα: Test compounds were dissolved in DMSO at 10 mM and diluted 1:10 in DMSO before serially diluting in assay buffer. […] Streptavidin-PVT SPA beads (AmershamPharmacia cat 4 RPNQ0007) were resuspended in assay buffer (50 mM Tris HCl pH 8.0, 50 mM KCl, 1 mM DTT, 0.1 mg/ml essentially fatty acid free bovine serum albumin) at 0.5 mg/ml. Biotin-His6-PXR/RXRα was added to the beads to a final concentration of 50 nM. The receptors were allowed to couple to the SPA beads for thirty minutes at room temperature. The uncoupled receptor was removed by centrifuging the SPA beads at 3000 rpm for 5 minutes in a swinging bucket rotor of a Rupp & Bowman Silencer centrifuge. The receptor coated SPA beads were then resuspended in assay buffer to 3.3 mg/ml. […] The total volume in each well was 100 μL. […] The plates were then allowed to incubate at room temperature until equilibrium was obtained, approximately 1.5 hours. The plates were then counted on a TopCount liquid scintillation counter (Packard) using a protocol optimized for ^3H PVT SPA and programmed to correct for color quenching.

Consider `ClC1=C(Cl)[C@]2(Cl)[C@H]3[C@H]([C@H](Cl)C(Cl)[C@@H]3Cl)[C@@]1(Cl)C2(Cl)Cl` (stereo partly drawn) [transnonachlor], for which, at hPXR [1], the “activation of hPXR (CAT activity)” value is given as “activated”.
In the case of `C[C@@H]1C[C@H]2[C@@H]3CCC4=CC(=O)C=C[C@]4(C)[C@@]3(F)[C@@H](O)C[C@]2(C)[C@@]1(O)C(=O)COC(=O)CC(C)(C)C` [dexamethasone-t-butylacetate], the “activation of hPXR (CAT activity), CYP3A1 DR3 PXRE reporter” value at hPXR [2] is on record as “activated efficiently”. In addition, the entries for the “activation of hPXR (CAT activity)” value at hPXR [1] and at hPXR [1] (listed as Dexamethasone-t-butylacetate) were “induced reporter levels; also recorded: activated” and “most efficacious activators”, respectively.
As for `CC[C@H](C)C(=O)O[C@H]1C[C@@H](C)C=C2C=C[C@H](C)[C@H](CC[C@@H]3C[C@@H](O)CC(=O)O3)[C@H]21` [lovastatin], at hPXR [1], the “activation of hPXR (CAT activity)” value is “activated; also recorded: more efficacious activators of hPXR than mPXR1”.
Take `CC(=O)[C@H]1[C@H](C#N)C[C@H]2[C@@H]3CC=C4C[C@@H](O)CC[C@]4(C)[C@H]3CC[C@@]21C` [PCN]: the “effect on CYP3A1 / CYP3A levels in rat hepatocytes” value in the data set with CYP3A1 levels is on record as “marked effects”. Besides, at mPXR1, the “fold activation of mPXR1” value was “roughly 9 fold”. The “interaction of the mPXR1 LBD with SRC1.14” value on GST-mPXR1 [3] is “promote the interaction”. Also, in the data set on CYP3A4 gene expression, the “induction of CYP3A4 gene expression / CYP3A levels in human hepatocytes” value is listed as “only modest effects”. Also, the “activation of hPXR (CAT activity)” value on hPXR [1] was “activated”.
Regarding `CCC1(c2ccccc2)C(=O)NC(=O)NC1=O` [phenobarbital], the “activation of hPXR (CAT activity)” value on hPXR [1] was “activated; also recorded: more efficacious activators of hPXR than mPXR1”.
By IC50 is commonly meant the point on the concentration scale where inhibition reaches its midpoint. The low end stands for inhibition by little substance, the high end for a need for much substance. Consider `Clc1ccccc1C(c1ccccc1)(c1ccccc1)n1ccnc1` [clotrimazole], for which inhibition at Biotin-His6-PXR/RXRα was half-maximal at 1.3 µM (IC50). Besides, the “interaction between GST-mPXR1 and [35S]SRC1.14” value at GST-mPXR1 [4] was “did not”.
Compound `CC(=O)[C@H]1CC[C@H]2[C@@H]3CC[C@@H]4CC(=O)CC[C@]4(C)[C@H]3CC[C@]12C` [5 β-pregnane-3,20-dione] gave an IC50 on Biotin-His6-PXR/RXRα of 1 µM. Also, the “fold activation of hPXR” value on hPXR [1] (10 μM) is given as “roughly 4 fold”.
